Assay results from ChEMBL document CHEMBL1146279 (Bioorg Med Chem Lett, 2007).

Each compound was assayed against T1, Tyrosine-protein kinase JAK3 (Homo sapiens, UniProt P52333) (assay: Inhibition of JAK3 expressed in Sf21 cells).
T1 sequence (P52333 whole entry): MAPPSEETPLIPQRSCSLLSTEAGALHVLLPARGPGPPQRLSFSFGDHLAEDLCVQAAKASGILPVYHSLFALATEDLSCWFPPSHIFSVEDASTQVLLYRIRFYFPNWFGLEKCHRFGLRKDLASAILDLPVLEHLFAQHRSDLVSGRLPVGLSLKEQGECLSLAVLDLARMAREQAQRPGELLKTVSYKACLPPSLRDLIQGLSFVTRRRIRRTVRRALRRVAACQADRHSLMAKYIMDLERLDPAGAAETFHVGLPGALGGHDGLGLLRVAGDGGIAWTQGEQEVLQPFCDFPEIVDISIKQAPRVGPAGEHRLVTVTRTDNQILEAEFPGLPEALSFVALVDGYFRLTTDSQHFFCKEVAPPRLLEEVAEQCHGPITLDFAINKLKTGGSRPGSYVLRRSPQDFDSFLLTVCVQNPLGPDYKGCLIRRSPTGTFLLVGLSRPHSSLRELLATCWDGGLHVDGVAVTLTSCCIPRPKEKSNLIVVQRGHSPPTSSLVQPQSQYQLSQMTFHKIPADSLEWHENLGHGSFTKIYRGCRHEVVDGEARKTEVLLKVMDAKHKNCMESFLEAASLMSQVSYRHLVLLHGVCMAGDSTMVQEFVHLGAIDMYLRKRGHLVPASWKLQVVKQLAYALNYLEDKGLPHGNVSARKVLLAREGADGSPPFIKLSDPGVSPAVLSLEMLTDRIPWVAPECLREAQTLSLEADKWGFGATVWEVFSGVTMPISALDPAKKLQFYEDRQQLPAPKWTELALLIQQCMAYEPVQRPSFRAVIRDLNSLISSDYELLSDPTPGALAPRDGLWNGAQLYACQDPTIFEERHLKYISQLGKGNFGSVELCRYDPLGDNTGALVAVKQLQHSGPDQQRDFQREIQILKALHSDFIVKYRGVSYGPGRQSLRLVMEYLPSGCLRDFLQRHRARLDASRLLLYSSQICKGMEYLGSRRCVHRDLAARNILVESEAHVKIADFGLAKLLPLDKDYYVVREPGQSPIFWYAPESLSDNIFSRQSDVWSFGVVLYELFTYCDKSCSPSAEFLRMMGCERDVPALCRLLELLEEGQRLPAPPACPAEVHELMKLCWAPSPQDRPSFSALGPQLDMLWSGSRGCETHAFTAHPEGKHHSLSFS

| Compound | IC50 [nM] |
| --- | --- |
| O=C1NCc2c1c1c3ccccc3n3c1c1c2c2ccccc2n1CC(CO)C3 (stereo not given) | 17.5 |
| O=C1NCc2c1c1c3ccccc3n3c1c1c2c2ccccc2n1CC(=C(CO)CO)C3 | 36 |
| O=C1NCc2c1c1c3cc(CO)ccc3n3c1c1c2c2cc(CO)ccc2n1CC(CO)C3 (stereo not given) | 14 |
| O=C1NCc2c1c1c3cc(/C=C/c4ccccn4)ccc3n3c1c1c2c2ccccc2n1CC(CO)C3 (stereo not given) | 354 |
| O=C1NCc2c1c1c3cc(Br)ccc3n3c1c1c2c2ccccc2n1CC(CO)C3 (stereo not given) | 23.5 |
| CN(C)CCCNC(=O)/C=C/c1ccc2c(c1)c1c3c(c4c5ccccc5n5c4c1n2CC(CO)C5)CNC3=O (stereo not given) | 237 |
| O=C1NCc2c1c1c3cc(CN4CCOCC4)ccc3n3c1c1c2c2cc(CN4CCOCC4)ccc2n1CC(CO)C3 (stereo not given) | > 5000 |
| O=Cc1ccc2c(c1)c1c3c(c4c5cc(Br)ccc5n5c4c1n2CC(CO)C5)C(=O)NC3 (stereo not given) | 15 |
| O=C1NCc2c1c1c3ccccc3n3c1c1c2c2ccccc2n1CC(O)(CO)C3 (stereo not given) | 27 |
| CN(C)Cc1ccc2c(c1)c1c3c(c4c5ccccc5n5c4c1n2CC(CO)C5)C(=O)NC3 (stereo not given) | 250 |
| CC(C)OCc1ccc2c(c1)c1c3c(c4c5ccccc5n5c4c1n2CC(CO)C5)C(=O)NC3 (stereo not given) | 80 |
| O=C1NCc2c1c1c3ccccc3n3c1c1c2c2ccccc2n1CC(O)C3 (stereo not given) | 142 |
| O=C1NCc2c1c1c3cc(/C=C/Cn4ccnc4)ccc3n3c1c1c2c2ccccc2n1CC(CO)C3 (stereo not given) | 11 |
| O=C1NCc2c1c1c3cc(/C=C/n4ccnc4)ccc3n3c1c1c2c2ccccc2n1CC(CO)C3 (stereo not given) | 109 |
| O=C1NCc2c1c1c3ccccc3n3c1c1c2c2ccccc2n1CC(CO)(CO)C3 | 13.5 |
